Assays:
PTH receptor [1] = target: T1, PTH receptor (Canis lupus familiaris, UniProt Q9TU31); assay type: binding, canine
T1 construct: canine renal plasma membranes; from tissue; host or cells: canine kidney (renal plasma membranes)
T1 sequence (Q9TU31 29-595): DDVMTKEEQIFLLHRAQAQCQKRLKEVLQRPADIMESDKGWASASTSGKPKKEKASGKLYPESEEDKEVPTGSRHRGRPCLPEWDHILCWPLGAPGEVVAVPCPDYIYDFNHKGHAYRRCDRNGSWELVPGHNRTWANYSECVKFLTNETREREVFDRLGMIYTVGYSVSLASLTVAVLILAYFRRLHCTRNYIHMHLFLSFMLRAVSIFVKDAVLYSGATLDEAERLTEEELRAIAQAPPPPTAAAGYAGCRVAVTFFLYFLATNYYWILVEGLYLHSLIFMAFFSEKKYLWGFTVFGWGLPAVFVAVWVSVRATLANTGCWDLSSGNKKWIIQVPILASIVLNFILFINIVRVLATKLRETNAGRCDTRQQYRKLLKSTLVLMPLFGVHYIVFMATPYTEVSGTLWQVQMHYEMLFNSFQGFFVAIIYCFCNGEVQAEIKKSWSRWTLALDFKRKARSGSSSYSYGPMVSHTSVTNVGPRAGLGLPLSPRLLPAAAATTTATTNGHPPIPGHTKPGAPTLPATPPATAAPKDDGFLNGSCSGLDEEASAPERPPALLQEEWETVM
Description: (§1) Receptor binding assays were carried out in canine renal plasma membranes and in UMR 106-H5 rat osteosarcoma cells as previously described in detail (Ref. 14,32), using ^125 I-labeled PTH(1-34)amide as the radioligand. Binding potency (IC50) was quantified as the concentration of unlabeled peptide required for half-maximal displacement of the radioligand. […] Adenylate cyclase activity was assessed in canine renal membranes by the conversion of [α-32p ] ATP to [^32 P] cyclic AMP, essentially as described, except for the addition of 100 micromolar GTP (Ref. 33,34). Adenylate cyclase activity in UMR 106-H5 cells was assessed essentially as described (Ref. 35). In brief, cells were incubated with [3H]adenine 1 micro Ci/ml of serum-free MEM for two hours at 37° C. to label the endogenous ATP pool. Cells were then exposed to 0.4 mM IBMX for 10 min, followed by the appropriate peptide for an additional 10 min at ambient temperature. The cells are then scraped in 20% TCA, and [3H]cyclic AMP is isolated by the column procedure of Salomon et al. (Ref. 36). Potency in the adenylate cyclase assays (Ka) is the concentration of peptide producing half-maximal enzyme activation.

PTH receptor [2] = target: T1, PTH receptor; assay type: biochemical, canine
Description: as §1

PTH receptor [3] = target: T2, PTH receptor (Rattus norvegicus, UniProt P25961); assay type: binding
T2 construct: endogenous in cells; host or cells: UMR 106-H5 rat osteosarcoma cells
T2 sequence (P25961 27-591): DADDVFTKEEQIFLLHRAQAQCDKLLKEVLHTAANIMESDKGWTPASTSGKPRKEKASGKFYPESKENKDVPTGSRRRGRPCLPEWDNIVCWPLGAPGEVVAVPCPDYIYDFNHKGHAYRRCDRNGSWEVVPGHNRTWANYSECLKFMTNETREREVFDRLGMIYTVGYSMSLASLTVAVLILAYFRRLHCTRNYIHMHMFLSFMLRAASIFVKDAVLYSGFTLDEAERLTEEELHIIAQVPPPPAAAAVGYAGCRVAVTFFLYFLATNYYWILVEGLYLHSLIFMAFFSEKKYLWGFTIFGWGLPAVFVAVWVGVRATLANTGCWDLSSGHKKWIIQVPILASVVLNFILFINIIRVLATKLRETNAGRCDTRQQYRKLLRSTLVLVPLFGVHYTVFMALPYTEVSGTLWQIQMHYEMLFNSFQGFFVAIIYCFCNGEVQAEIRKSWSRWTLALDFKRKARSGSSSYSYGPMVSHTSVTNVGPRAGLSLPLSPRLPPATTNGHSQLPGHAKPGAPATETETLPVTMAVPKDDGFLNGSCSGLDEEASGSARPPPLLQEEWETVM
Description: as §1

PTH receptor [4] = target: T2, PTH receptor; assay type: cell-based
Description: as §1, with “Assays were conducted using […] cells. These assays were performed as described in Cohen et al. (1991), J. Biological Chem., 266(3), 1997 and in the Experimental section, e.g. Example 11. Receptor” for “Receptor”

PTH receptor [5] = test system: PTH receptor
PTH receptor [6] = target: T3, PTH receptor (Homo sapiens, UniProt Q03431)
T3 sequence (Q03431 27-593): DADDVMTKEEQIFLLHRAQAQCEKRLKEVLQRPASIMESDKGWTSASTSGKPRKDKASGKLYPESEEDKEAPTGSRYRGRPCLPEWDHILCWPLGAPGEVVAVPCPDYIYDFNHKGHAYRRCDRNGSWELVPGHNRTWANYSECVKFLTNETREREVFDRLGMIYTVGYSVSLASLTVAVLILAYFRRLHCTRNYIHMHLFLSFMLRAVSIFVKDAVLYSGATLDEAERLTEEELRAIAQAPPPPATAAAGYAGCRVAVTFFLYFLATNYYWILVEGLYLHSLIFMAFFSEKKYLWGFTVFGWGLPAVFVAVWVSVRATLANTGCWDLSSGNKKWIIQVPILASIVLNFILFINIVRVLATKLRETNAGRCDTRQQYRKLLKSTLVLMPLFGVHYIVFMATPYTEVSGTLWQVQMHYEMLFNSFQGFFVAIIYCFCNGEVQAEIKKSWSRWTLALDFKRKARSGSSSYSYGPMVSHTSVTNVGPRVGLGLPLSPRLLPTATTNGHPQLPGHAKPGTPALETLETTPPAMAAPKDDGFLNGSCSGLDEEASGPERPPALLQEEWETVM

PTH receptor [7] = target: T3, PTH receptor; remark: listed apart in the source
PTH receptor [8] = target: T3, PTH receptor; assay type: cell-based; design: In intact rat (UMR-106) and human (SaOS-2) bone cell lines; endogenous in cells; host or cells: SaOS-2 human bone (osteosarcoma) cells
From the text: The renal membrane assay values listed reflect the effect of the polypeptide analogue with kidney tissue receptors. The UMR-106-H5 assay values reflect the effect of the peptide analogue with rat bone tissue receptors. The Sa05-2 assay values reflect the effect of the peptides for human bone tissue receptors.

[9] = aqueous conditions in the absence of amphiphiles (Ref. 37-39); cited from earlier work
[10] = Table 5A, intact cells, hPTH(1-34) = 100

RENAL MEMBRANES Canine Potency (B) (PTH receptor [1]) [%]	RENAL MEMBRANES Canine Potency (AC) (PTH receptor [2]) [%]	RENAL MEMBRANES Canine Activity (AC) (PTH receptor [2]; Table 5B, hPTH(1-34) = 100) [%]	BONE CELLS Rat(UMR-106) Potency (B) (PTH receptor [3]) [%]	BONE CELLS Rat(UMR-106) Potency (AC) (PTH receptor [4]) [%]	BONE CELLS Rat(UMR-106) Activity (AC) (PTH receptor [4]; [10]) [%]	BONE CELL MEMBRANES Human SaOS-2 Potency (AC) (PTH receptor [6]) [%]	BONE CELL MEMBRANES Human SaOS-2 Activity (AC) (PTH receptor [6]; Table 5B, hPTH(1-34) = 100) [%]	RENAL MEMBRANES Human Potency (AC) (PTH receptor [7]) [%]	RENAL MEMBRANES Human Activity (AC) (PTH receptor [7]; Table 5B, hPTH(1-34) = 100) [%]	BONE CELLS Human(SaOS-2) Potency (AC) (PTH receptor [8]) [%]	BONE CELLS Human(SaOS-2) Activity (AC) (PTH receptor [8]; [10]) [%]	Compound	KIDNEY CELLS (CK) Potency (B) (PTH receptors) [%]	potency of native [ser^3]HPTH(1-34) retained in binding to PTH receptors (PTH receptors)	KIDNEY CELLS (CK) Potency (AC) (PTH receptor [5]) [%]	alpha-helical residues, previous estimates [9] [residues]
7	1	47	6	13	100	8	14	3	35	11	86	CC[C@H](C)[C@H](NC(=O)[C@H](CCC(=O)O)NC(=O)[C@H](CC(C)C)NC(=O)[C@@H](NC(=O)[C@@H](N)CO)C(C)C)C(=O)N[C@@H](CCC(N)=O)C(=O)N[C@@H](CC(C)C)C(=O)N[C@@H](CCSC)C(=O)N[C@@H](Cc1c[nH]cn1)C(=O)N[C@@H](CC(N)=O)C(=O)N[C@@H](CC(C)C)C(=O)NCC(=O)N[C@@H](CCCCN)C(=O)N[C@@H](Cc1c[nH]cn1)C(=O)N[C@@H](CC(C)C)C(=O)N[C@@H](CC(N)=O)C(=O)N[C@@H](CO)C(=O)N[C@@H](CCSC)C(=O)N[C@@H](CCC(=O)O)C(=O)N[C@@H](CCCNC(=N)N)C(=O)N[C@H](C(=O)N[C@@H](CCC(=O)O)C(=O)N[C@@H](Cc1c[nH]c2ccccc12)C(=O)N[C@@H](CC(C)C)C(=O)N[C@@H](CCCNC(=N)N)C(=O)N[C@@H](CCCCN)C(=O)N[C@@H](CCCCN)C(=O)N[C@@H](CC(C)C)C(=O)N[C@@H](CCC(N)=O)C(=O)N[C@@H](CC(=O)O)C(=O)N[C@H](C(=O)N[C@@H](Cc1c[nH]cn1)C(=O)N[C@@H](CC(N)=O)C(=O)N[C@@H](Cc1ccccc1)C(=O)O)C(C)C)C(C)C [[leu^3]hPTH(1-34), [leu^3] HPTH(1-34)]	22	5-15%	16	–
–	–	–	–	–	–	–	–	–	–	–	–	bPTH(7-34) (FMHNLGKHLSSMERVEWLRKKLQDVHNF; Parathyroid hormone; UniProt P01268 38-65, looked up, fragment)	–	–	–	9

Source: patent publication US5849695A, “Parathyroid hormone analogues useful for treatment of osteoporosis and disorders of calcium meatabolism in mammals” (The Regents of the University of California, priority 1993, dated 1998)
